Assays:
Assay type in all cases: cell-based
A2780 (ovarian) cells = assay: Anti-proliferative activity, Cell-Titre luminescent viability assay; conditions: Homo sapiens, 72 h exposure, Cell-Titre luminescent reagent
Method in brief: (§1)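 Cells attached 24 h at 37° C., 5% CO2, then treated 72 h with compound at 0.3–100 μM or 0.1–30 μM. Viability read by Cell-Titre luminescence after 30 min reagent exposure, normalized to vehicle; EC50 from variable-slope sigmoidal nonlinear regression.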

[1] = tested on: Caco-2 (colorectal) cells; assay: as above; conditions: Homo sapiens, 72 h exposure, Cell-Titre luminescent reagent
Method in brief: as §1

[2] = tested on: MIA PaCa-2 (pancreatic) cells; assay: as above; conditions: Homo sapiens, 72 h exposure, Cell-Titre luminescent reagent
Method in brief: as §1

PC3 (prostate) cells = assay: as above; conditions: 72 h exposure, Cell-Titre luminescent reagent
Method in brief: as §1

[3] = tested on: SK-N-SH neuroblastoma cells; assay: Cytotoxicity assay, MTS viability; conditions: Homo sapiens, 72 hours
Method in brief: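 SK-N-SH cells, 2×10^3/well in DMEM with 10% FBS at 37 °C, treated with 1:2 compound series from 100 μM; MTS viability read after 72 hours. Viability normalised to vehicle control; EC50 taken from dose-response curves.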

[4] = biological target: T1, Tpm3.1-containing actin microfilaments in SK-N-SH neuroblastoma cells (Homo sapiens, UniProt P06753); assay: Imaging and quantitation of Tpm3.1 mCherry and 488-Atto-Phalloidin actin filaments; conditions: 24 hours post-treatment, two concentrations, FIG. 2 and FIG. 3
T1 construct: expressed in transfected cells; host or cells: SK-N-SH neuroblastoma cells
T1 sequence (P06753 1-248 isoform P06753-2): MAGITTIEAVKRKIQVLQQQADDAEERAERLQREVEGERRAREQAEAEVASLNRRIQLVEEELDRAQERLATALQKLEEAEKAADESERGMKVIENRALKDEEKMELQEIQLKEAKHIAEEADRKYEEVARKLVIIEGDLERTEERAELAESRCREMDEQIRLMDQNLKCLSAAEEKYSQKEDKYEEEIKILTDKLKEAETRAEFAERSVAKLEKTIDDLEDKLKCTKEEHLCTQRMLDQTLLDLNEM
Procedure: The ability of compounds 24, 26 and 143 to disrupt Tpm3.1-containing actin microfilaments was investigated in SK—N—SH neuroblastoma cells that express Tpm3.1 labelled with the mCherry fluorophore. Cells were seeded at 3×10^4 cells per well in a volume of 1000 μL complete media onto a 12 well plate containing 13 mm coverslips and left to plate down for 24 hours prior to treatment. Cells were then treated with DMSO and two concentrations of the test compounds. 24 hours post-treatment, cells were fixed with 16% paraformaldehyde (PBS) and stained with 488-Atto-Phalloidin to visualise the actin filament bundles. Single plane images were obtained using the Olympus IX83 epi-fluorescence microscope. Ten fields of view were collected for both Tpm3.1 mCherry fluorophore (FIG. 2) and 488-Atto-Phalloidin (FIG. 3) with each treatment condition.
Quantitation of either Tpm3.1 mCherry filaments or 488-Atto-Phalloidin filaments was performed using ImageJ 1.52p software (ImageJ, NIH). The mean pixel intensity from a cell was measured by using a line across the entire cell cytoplasmic area above or below the nuclear region. The line was made to cross the filament bundles at a 90° angle for the measurement rather than run along a single filament. A total of n=100 cells were measured from ten fields of view. […]

## O=C(Nc1ccc(C(F)(F)F)cc1)c1ccn(S(=O)(=O)c2ccc3[nH]ccc3c2)c1 [Compound 26, 1-((1H-indol-5-yl)sulfonyl)-N-(4-(trifluoromethyl)phenyl)-1H-pyrrole-3-carboxamide]
A2780 (ovarian) cells
  IC50: 4.9 µM
[1]
  IC50: 6.1 µM
[2]
  IC50: 10.1 µM
PC3 (prostate) cells
  IC50: 7.7 µM
[3]
  IC50: 7.87 µM
[4]
  Disruption of Tpm3.1-containing actin microfilaments: disrupt Tpm3.1-containing actin microfilaments in a dose-dependent manner

Source: patent US12528792B2, “Sulfonamide compounds and the use thereof in the treatment of cancer” (TROBIO THERAPEUTICS PTY LTD, priority 2019, dated 2026)
